Source: US6358942B1, “Phenyloxazolidinones having a c-c bond 4-8 membered heterocyclic rings” (Pharmacia & Upjohn Company, priority 1995, dated 2002)

tested on: not given; test: not given; conditions: not given

Compound	melting point [°C]
CC(=O)NC[C@H]1CN(c2ccc(C3=CCCCO3)c(F)c2)C(=O)O1 [Example 80, (S)-N-[[3-[3-Fluoro-4-(3,4-dihydro-2H-pyran-6-yl)phenyl]-2-oxo-5-oxazolidinyl]methyl]acetamide]	161 to 163

tested on: Staphylococcus aureus or Streptococcus species; test: Murine Assay: in vivo antimicrobial activity, survival of mice infected intraperitoneally with bacteria; conditions: not given
Method: Antimicrobial activity was tested in vivo using the Murine Assay procedure. Groups of female mice (six mice of 18-20 grams each) were injected intraperitoneally with bacteria which were thawed just prior to use and suspended in brain heart infusion with 4% brewers yeast (Staphylococcus aureus) or brain heart infusion (Streptococcus species). Antibiotic treatment at six dose levels per drug was administered one hour and five hours after infection by either oral intubation or subcutaneous routes. Survival was observed daily for six days. ED50 values based on mortality ratios were calculated using probit analysis. The subject compounds are compared against well-known antimicrobials vancomycin and U-100592 as controls. See “Upjohn Oxazolidinone Antibacterial Agent”, posters presented at the 35th Interscience Conference on Antimicrobial Agents and Chemotherapy.

Compound	ED50 [mg/kg]
COC(=O)N1CC=C(c2ccc(N3C[C@H](CNC(C)=O)OC3=O)cc2F)CC1 [Example 57, (S)-(−)-4-[4-[5-[(Acetylamino)methyl]-2-oxo-3-oxazolidinyl]-2-fluorophenyl]-3,6-dihydro-1(2H)-pyridinecarboxylic acid methyl ester]	6.2
COC(=O)N1CC=C(c2ccc(N3C[C@H](CNC(C)=O)OC3=O)cc2)CC1 [Example 62, (S)-(−)-4-[4-[5-[(Acetylamino)methyl]-2-oxo-3-oxazolidinyl]phenyl]-3,6-dihydro-1(2H)-pyridinecarboxylic acid methyl ester]	12

same assay, conditions: Table 1; female mice; treatment 1 h and 5 h after infection, oral intubation or subcutaneous; survival over six days; probit analysis of mortality ratios

Compound	ED50 [mg/kg]
CC(=O)NC[C@H]1CN(c2ccc(C3=CCOCC3)c(F)c2)C(=O)O1 [Example 47, (S)-(−)-N-[[3-[4-(3,6-Dihydro-2H-pyran-4-yl)-3-fluoropheny]-2-oxo-5-oxazolidinyl]methyl]acetamide]	7.10

same assay, conditions: Table 1; female mice; treatment 1 h and 5 h after infection, oral intubation or subcutaneous; survival over six days; probit analysis of mortality ratios; read-out: ED50

Compound	ED50 [mg/kg]
CC(=O)NC[C@H]1CN(c2ccc(C3CCN(CCF)CC3)c(F)c2)C(=O)O1 [Example 28, (S)-(−)-N-[[3-[4-[1-(2-Fluoroethyl)-4-piperidinyl]-3-fluorophenyl]-2-oxo-5-oxazolidinyl]methyl]acetamide]	15.3
CC(=O)NC[C@H]1CN(c2ccc(C3CCN(C(=O)CO)CC3)c(F)c2)C(=O)O1 [Example 22, (S)-(−)-N-[[3-[4-[1-(Hydroxyacetyl)-4-piperidinyl]-3-fluorophenyl]-2-oxo-5-oxazolidinyl]methyl]acetamide]	2.3
CC(=O)NC[C@H]1CN(c2ccc(C3CCN(C(=O)CO)CC3)cc2)C(=O)O1 [Example 19, (S)-(−)-N-[[3-[4-[1-(Hydroxyacetyl)-4-piperidinyl]phenyl]-2-oxo-5-oxazolidinyl]methyl]acetamide]	6.8
CC(=O)NC[C@H]1CN(c2ccc(C3CCN(C(=O)c4cc5ccccc5[nH]4)CC3)c(F)c2)C(=O)O1 [Example 23, (S)-(−)-N-[[3-[4-[1-(Indole-2-carbonyl)-4-piperidinyl]-3-fluorophenyl]-2-oxo-5-oxazolidinyl]methyl]acetamide]	> 20

same assay, conditions: Table 2; female mice; treatment 1 h and 5 h after infection, oral intubation or subcutaneous; survival over six days; probit analysis of mortality ratios

Compound	ED50 [mg/kg]
(5S)-N-[[3-[3-Fluoro-4-[1-(formyl)-3-pyrrolidinyl]phenyl]-2-oxo-5-oxazolidinyl]methyl] [Example 45]	2.80
COC(=O)N1CCC(c2ccc(N3C[C@H](CNC(C)=O)OC3=O)cc2F)C1 (stereo partly drawn) [Example 46, (5S)-3-[4-[5-[(Acetylamino)methyl]-2-oxo-3-oxazolidinyl]-2-fluoropheny]-1-pyrrolidinecarboxylic acid methyl ester]	7.90
CC(=O)NC[C@H]1CN(c2ccc(C3=CCS(=O)(=O)CC3)cc2)C(=O)O1 [Example 55, (S)-(−)-N-[[3-[4-(3,6-Dihydro-2H-thiopyran-4-yl)phenyl]-2-oxo-5-oxazolidinyl]methyl]acetamide S,S-dioxide]	2.30
CC(=O)NC[C@H]1CN(c2ccc(C3CCS(=O)(=O)CC3)c(F)c2)C(=O)O1 [Example 51, (S)-(−)-N-[[3-[3-Fluoro-4-(tetrahydro-2H-thiopyran-4-yl)phenyl]-2-oxo-5-oxazolidinyl]methyl]acetamide S,S-dioxide]	2.80
CC(=O)NC[C@H]1CN(c2ccc(C3=CCCN(C(=O)CO)C3)c(F)c2)C(=O)O1 [Example 71, (S)-N-[[3-[4-[1-(Hydroxyacetyl)-5,6-dihydro-2H-pyridin-3yl]-3-fluoropheny]-2-oxo-5-oxazolidinyl]methyl]acetamide]	13.4

same assay, conditions: Table 2; female mice; treatment 1 h and 5 h after infection, oral intubation or subcutaneous; survival over six days; probit analysis of mortality ratios; read-out: ED50

Compound	ED50 [mg/kg]
CC(=O)NC[C@H]1CN(c2ccc(C3=CCN(C(=O)CO)CCC3)c(F)c2)C(=O)O1 [Example 76, (S)-(−)-N-[[3-[4-[1-(Hydroxyacetyl)-2,3,4,7-tetrahydro-1H-azepin-5-yl]-3-fluorophenyl]-2-oxo-5-oxazolidinyl]methyl]acetamide]	> 20
CC(=O)NC[C@H]1CN(c2ccc(C3CN(C=O)C3)c(F)c2)C(=O)O1 [Example 84, (S)-N-[[3-[3-Fluoro-4-[1-(formyl)-3-azetidinyl]phenyl]-2-oxo-5-oxazolidinyl]methyl]acetamide]	6.5
CC(=O)NC[C@H]1CN(c2ccc(C3=CCN(C(=O)CO)CC3)cc2)C(=O)O1 [Example 60, (S)-(−)-N-[[3-[4-[1-(Hydroxyacetyl)-3,6-dihydro-2H-pyridin-4-yl]phenyl]-2-oxo-5-oxazolidinyl]methyl]acetamide]	3.1
CC(=O)NC[C@H]1CN(c2ccc(C3=CCS(=O)(=O)C3)c(F)c2)C(=O)O1 [69(a), (S)-N-[[3-[3-Fluoro-4-(2,5-dihydro-1,1-dioxido-3-thienyl)-phenyl]-2-oxo-5-oxazolidinyl]methyl]acetamide]	10
CC(=O)NC[C@H]1CN(c2ccc(C3=CCSCC3)cc2)C(=O)O1 [Example 54, (S)-(−)-N-[[3-[4-(3,6-Dihydro-2H-thiopyran-4-yl)phenyl]-2-oxo-5-oxazolidinyl]methyl]acetamide]	6.6
